“Also recorded” adds a separate entry of the source.
How the values were obtained:
MT2R = target: T1, MT2R (Homo sapiens, UniProt P49286); test: Melatonin receptor affinity, MT2R; format: binding
T1 sequence (P49286 1-362): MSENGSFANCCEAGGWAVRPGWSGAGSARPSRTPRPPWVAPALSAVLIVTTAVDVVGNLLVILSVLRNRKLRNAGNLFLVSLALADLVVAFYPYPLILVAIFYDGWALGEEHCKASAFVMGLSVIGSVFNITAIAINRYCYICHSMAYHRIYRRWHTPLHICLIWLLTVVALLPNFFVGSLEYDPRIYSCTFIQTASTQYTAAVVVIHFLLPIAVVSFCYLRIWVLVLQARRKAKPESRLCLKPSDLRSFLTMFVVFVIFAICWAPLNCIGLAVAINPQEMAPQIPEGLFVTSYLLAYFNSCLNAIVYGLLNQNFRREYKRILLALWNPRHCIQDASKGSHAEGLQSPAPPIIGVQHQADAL
Experimental: Tasimelteon is a white to off-white powder with a melting point of about 78° C. […] Tasimelteon has 2-4 times greater affinity for MT2R relative to MT1R.

[1] = tmax after administration; set-up: species or system human; details: in vivo
Experimental: The ability to administer tasimelteon as little as about one hour prior to sleep time is advantageous because it allows for avoidance of pre-sleep time soporific effects, because it allows for administration of higher doses that might have greater soporific effects, and because it allows for pharmacologic intervention at a different phase of the sleep cycle than if it were administered earlier. Without wishing to be bound to any particular theory, it appears that the ability to administer tasimelteon so close to sleep time is a function of its tmax, which is approximately one-half hour. Melatonin, on the other hand, which has a tmax of approximately 2 hours or more, is administered several hours before sleep time, which can cause premature sleepiness; to avoid this soporific effect, melatonin is sometimes administered at sub-optimal doses.

CYP1A2 and CYP3A4 = test: Isoenzymes involved in tasimelteon metabolism; format: in vitro ADME
Non-24 patients = test: Phase advance of circadian rhythm on initiation of treatment; format: in vivo, human; details: upon initiation of treatment
Experimental: For example, treatment of a patient who has a target bedtime of 10:00 p.m. and a target wake time of 7:00 a.m., treatment initiation can be on a day when urinary aMT6s acrophase is predicted to occur at 3:30 am. However, treatment with tasimelteon can conveniently be initiated on a day on which melatonin acrophase, e.g., using calculated urinary aMT6s acrophase, is predicted to be between about 5.5 hours before target wake time and 2.5 hours after target wake time. Without intending to be bound to a particular theory, this flexibility is apparently owing to the unusually marked effects of such active ingredient on circadian rhythm upon initiation of treatment (e.g., phase advance by as much as about 5 hours on initial treatment).

CCC(=O)NC[C@@H]1C[C@H]1c1cccc2c1CCO2 (relative stereo) [Tasimelteon, trans-N-[[2-(2,3-dihydrobenzofuran-4-yl)cycloprop-1yl]methyl]propanamide]
greater affinity for MT2R relative to MT1R (MT2R): 2-4 times
Tmax [1]: approximately one-half; also recorded: about one-half
isoenzymes also involved in metabolism (CYP1A2 and CYP3A4): CYP1A1, CYP2D6, CYP2C19, and CYP2C9
major isoenzymes involved in the metabolism (CYP1A2 and CYP3A4): CYP1A2 and CYP3A4
phase advance on initial treatment (Non-24 patients): ≤ 5 h

Source: US11090285B2, “Treatment of circadian rhythm disorders” (Vanda Pharmaceuticals Inc., priority 2013, dated 2021)
